Measurements: patent US5466671A, “Apidaecin-type peptide antibiotics with improved activities and/or different antibacterial spectrum” (priority 1994, dated 1995)
Residues, ends and D or L forms follow the SMILES beside them.

Legend:
E. coli 25922 = assay: Minimal inhibitory concentration (liquid culture); settings: inoculum 1100 CFU/ml; a-b = highest concentration with growth - lowest without growth
M. morganii = assay: Minimal inhibitory concentration (liquid culture); settings: inoculum 400 CFU/ml; a-b = highest concentration with growth - lowest without growth
Rhizobium meliloti = assay: Inhibition zone assay (agar plate); type: cell-based; settings: 50 nanomoles/well, 3 mm wells
Erwinia amylovora = assay: Inhibition zone assay (agar plate); type: cell-based; settings: agar plate, 50 nanomoles/well, 3 mm wells
E. coli 11775 = assay: Minimal inhibitory concentration (liquid culture); settings: for minimal inhibitory concentration (MIC): a-b = highest concentration with growth - lowest without growth
Haemophilus influenzae = assay: Inhibition zone assay (agar plate); type: cell-based; settings: 50 nanomoles/well, 3 mm wells
A. calcoaceticus = assay: Minimal inhibitory concentration (liquid culture); settings: inoculum 16 × 10^6 CFU/ml; a-b = highest concentration with growth - lowest without growth
Enterobacter cloacae = assay: Inhibition zone assay (agar plate); type: cell-based; settings: agar plate, 50 nanomoles/well, 3 mm wells
Legionella pneumophila = type: cell-based; settings: agar plate, 50 nanomoles/well, 3 mm wells
Pseudomonas syringae = assay: Inhibition zone assay (agar plate); type: cell-based; settings: agar plate, 50 nanomoles/well, 3 mm wells
[1] = tested on: Escherichia coli (11775 Apid R); type: cell-based; settings: agar plate, 50 nanomoles/well, 3 mm wells
[2] = tested on: Escherichia coli (ATCC11775); assay: Inhibition zone assay (agar plate); type: cell-based; settings: agar plate, 50 nanomoles/well, 3 mm wells
Escherichia coli (K514) = type: cell-based; settings: agar plate, 50 nanomoles/well, 3 mm wells
Klebsiella pneumoniae = assay: Inhibition zone assay (agar plate); type: cell-based; settings: agar plate, 50 nanomoles/well, 3 mm wells
Morganella morganii = assay: Inhibition zone assay (agar plate); type: cell-based; settings: 50 nanomoles/well, 3 mm wells
Y. enterocolitica = assay: Minimal inhibitory concentration (liquid culture); settings: inoculum 5000 CFU/ml; a-b = highest concentration with growth - lowest without growth
[3] = tested on: Agrobacterium tumefaciens; assay: Inhibition zone assay (agar plate); type: cell-based; settings: agar plate, 50 nanomoles/well, 3 mm wells
Salmonella typhimurium = assay: Inhibition zone assay (agar plate); type: cell-based; settings: agar plate, 50 nanomoles/well, 3 mm wells
E. coli 23802 = assay: Minimal inhibitory concentration (liquid culture); settings: inoculum 5000 CFU/ml; a-b = highest concentration with growth - lowest without growth
Campylobacter jejuni = assay: Inhibition zone assay (agar plate); type: cell-based; settings: 50 nanomoles/well, 3 mm wells
S. typhimurium = assay: Minimal inhibitory concentration (liquid culture); settings: inoculum 8 × 10^6 CFU/ml; a-b = highest concentration with growth - lowest without growth
[4] = tested on: Acinetobacter calcoaceticus; assay: Inhibition zone assay (agar plate); type: cell-based; settings: agar plate, 50 nanomoles/well, 3 mm wells
Salmonella typhi = type: cell-based; settings: agar plate, 50 nanomoles/well, 3 mm wells
E. coli Apid^R = assay: Minimal inhibitory concentration (liquid culture); type: cell-based; settings: a-b = highest concentration with growth - lowest without growth
Excerpt: For details see `Experimental Procedures`.

Shigella dysenteriae = type: cell-based; settings: agar plate, 50 nanomoles/well, 3 mm wells

SMILES	minimal inhibitory concentration (MIC) (E. coli 25922) [µg/mL]	minimal inhibitory concentration (MIC) (M. morganii) [µg/mL]	inhibition zone diameter (number of plus signs) (Rhizobium meliloti)	inhibition zone diameter (number of plus signs) (Erwinia amylovora)	minimal inhibitory concentration (MIC) (E. coli 11775; inoculum 16 × 10^6 CFU/ml) [µg/mL]	minimal inhibitory concentration (MIC) (E. coli 11775; inoculum 1200 CFU/ml) [µg/mL]	inhibition zone diameter (number of plus signs) (Haemophilus influenzae)	minimal inhibitory concentration (MIC) (A. calcoaceticus) [µg/mL]	inhibition zone diameter (number of plus signs) (Enterobacter cloacae)	inhibition zone diameter (number of plus signs) (Legionella pneumophila)	inhibition zone diameter (number of plus signs) (Pseudomonas syringae)	inhibition zone diameter (number of plus signs) [1]	inhibition zone diameter (number of plus signs) [2]	inhibition zone diameter (number of plus signs) (Escherichia coli (K514))	inhibition zone diameter (number of plus signs) (Klebsiella pneumoniae)	inhibition zone diameter (number of plus signs) (Morganella morganii)	minimal inhibitory concentration (MIC) (Y. enterocolitica) [µg/mL]	inhibition zone diameter (number of plus signs) [3]	inhibition zone diameter (number of plus signs) (Salmonella typhimurium)	minimal inhibitory concentration (MIC) (E. coli 23802) [µg/mL]	also measured
CC[C@H](C)[C@H](NC(=O)[C@@H]1CCCN1C(=O)[C@H](C)NC(=O)[C@@H]1CCCN1C(=O)[C@H](CCCNC(=N)N)NC(=O)[C@@H]1CCCN1C(=O)[C@H](CCCNC(=N)N)NC(=O)[C@H](CC(N)=O)NC(=O)[C@@H]1CCCN1C(=O)[C@H](CCCCN)NC(=O)CN)C(=O)N[C@@H](CCC(N)=O)C(=O)N1CCC[C@H]1C(=O)N[C@@H](CCCNC(=N)N)C(=O)N1CCC[C@H]1C(=O)N1CCC[C@H]1C(=O)N[C@@H](Cc1c[nH]cn1)C(=O)N1CCC[C@H]1C(=O)N[C@@H](CCCNC(=N)N)C(=O)N[C@@H](CC(C)C)C(=O)O [Cd 1+, Gly--Lys--Pro--Asn--Arg--Pro--Arg--Pro--Ala--Pro--Ile--Gln--Pro--Arg--Pro--Pro--His--Pro--Arg--Leu] (H-GKPNRPRPAPIQPRPPHPRL-OH)	10 to 20	10 to 20	++++ ((++++) 15-19 mm)	++ ((++) 7-9 mm)	> 20	10 to 20	++++ ((++++) 15-19 mm)	> 20	+++ ((+++) 10-14 mm)	++ ((++) 7-9 mm)	++++ ((++++) 15-19 mm)	++ ((++) 7-9 mm)	++ ((++) 7-9 mm)	++ ((++) 7-9 mm)	++ ((++) 7-9 mm)	++ ((++) 7-9 mm)	20 to 40	++++ ((++++) 15-19 mm)	++ ((++) 7-9 mm)	10 to 20	inhibition zone diameter (number of plus signs) (Campylobacter jejuni): +++ ((+++) 10-14 mm); minimal inhibitory concentration (MIC) (S. typhimurium): 10 to 20 µg/mL; inhibition zone diameter (number of plus signs) [4]: ++ ((++) 7-9 mm)
CC[C@H](C)[C@H](NC(=O)[C@@H]1CCCN1C(=O)[C@H](C)NC(=O)[C@@H]1CCCN1C(=O)[C@H](CCCNC(=N)N)NC(=O)[C@@H]1CCCN1C(=O)[C@H](CCCCN)NC(=O)[C@H](CO)NC(=O)[C@@H]1CCCN1C(=O)[C@H](CCCCN)NC(=O)CN)C(=O)N[C@@H](CCCCN)C(=O)N1CCC[C@H]1C(=O)N[C@@H](CCCNC(=N)N)C(=O)N1CCC[C@H]1C(=O)N1CCC[C@H]1C(=O)N[C@@H](Cc1c[nH]cn1)C(=O)N1CCC[C@H]1C(=O)N[C@@H](CCCNC(=N)N)C(=O)N[C@@H](CC(C)C)C(=O)O [Cd 3+, Gly--Lys--Pro--Ser--Lys--Pro--Arg--Pro--Ala--Pro--Ile--Lys--Pro--Arg--Pro--Pro--His--Pro--Arg--Leu] (H-GKPSKPRPAPIKPRPPHPRL-OH)	0.1 to 0.5	1 to 5	+++ ((+++) 10-14 mm)	+ ((+) 5-6 mm)	0.1 to 0.5	0.1 to 0.5	++++ ((++++) 15-19 mm)	10 to 20	+++ ((+++) 10-14 mm)	++ ((++) 7-9 mm)	++ ((++) 7-9 mm)	++ ((++) 7-9 mm)	++ ((++) 7-9 mm)	+ ((+) 5-6 mm)	++ ((++) 7-9 mm)	++ ((++) 7-9 mm)	10 to 20	+++ ((+++) 10-14 mm)	++ ((++) 7-9 mm)	0.1 to 0.5	inoculum effect on inhibition of viability (E. coli 11775; inoculum sizes differing by four orders of magnitude): equally well; inhibition zone diameter (number of plus signs) (Salmonella typhi): ++ ((++) 7-9 mm); inhibition zone diameter (number of plus signs) (Campylobacter jejuni): +++++ ((+++++) 20 or more min); minimal inhibitory concentration (MIC) (S. typhimurium): 0.1 to 0.5 µg/mL; inhibition zone diameter (number of plus signs) [4]: + ((+) 5-6 mm); minimal inhibitory concentration (MIC) (E. coli Apid^R; inoculum 12 × 10^6 CFU/ml): 0.5 to 1.5 µg/mL; minimal inhibitory concentration (MIC) (E. coli Apid^R; inoculum 12 × 10^6 CFU/ml, listed as Cd3+): measurable activities; minimal inhibitory concentration (MIC) (E. coli Apid^R; inoculum 1000 CFU/ml): 0.5 to 1 µg/mL
CC[C@H](C)[C@H](NC(=O)[C@@H]1CCCN1C(=O)[C@H](C)NC(=O)[C@@H]1CCCN1C(=O)[C@H](CCCNC(=N)N)NC(=O)[C@@H]1CCCN1C(=O)[C@H](CCCCN)NC(=O)[C@@H](N)CO)C(=O)N[C@@H](CCCCN)C(=O)N1CCC[C@H]1C(=O)N[C@@H](CCCNC(=N)N)C(=O)N1CCC[C@H]1C(=O)N1CCC[C@H]1C(=O)N[C@@H](Cc1c[nH]cn1)C(=O)N1CCC[C@H]1C(=O)N[C@@H](CCCNC(=N)N)C(=O)N[C@@H](CC(C)C)C(=O)O [Cd 3-, Ser--Lys--Pro--Arg--Pro--Ala--Pro--Ile--Lys--Pro--Arg--Pro--Pro--His--Pro--Arg--Leu] (H-SKPRPAPIKPRPPHPRL-OH)	0.5 to 1	1 to 5	++++ ((++++) 15-19 mm)	+ ((+) 5-6 mm)	0.5 to 1	0.1 to 0.5	+++ ((+++) 10-14 mm)	10 to 20	+++ ((+++) 10-14 mm)	++ ((++) 7-9 mm)	++ ((++) 7-9 mm)	++ ((++) 7-9 mm)	++ ((++) 7-9 mm)	+ ((+) 5-6 mm)	++ ((++) 7-9 mm)	++ ((++) 7-9 mm)	20 to 40	++ ((++) 7-9 mm)	++ ((++) 7-9 mm)	5 to 10	inhibition zone diameter (number of plus signs) (Shigella dysenteriae): ++ ((++) 7-9 mm); inhibition zone diameter (number of plus signs) (Campylobacter jejuni): ++++ ((++++) 15-19 mm); minimal inhibitory concentration (MIC) (S. typhimurium): 1 to 5 µg/mL; inhibition zone diameter (number of plus signs) [4]: + ((+) 5-6 mm); minimal inhibitory concentration (MIC) (E. coli Apid^R; inoculum 12 × 10^6 CFU/ml): 5 to 10 µg/mL; minimal inhibitory concentration (MIC) (E. coli Apid^R; inoculum 1000 CFU/ml): 5 to 10 µg/mL
